Test results taken from the supplement of paper PMC10307832.

Assays:
Test in all cases: relative viability (nuclei count vs DMSO), 5 days (fraction); higher = more cells survive
Indole-3-carbinol = compound: OCc1c[nH]c2ccccc12 [Indole-3-carbinol]
Procedure, shortened: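 Acceptance criteria were a control CV below 25% and at least one doubling per plate. Lung cancer cell lines in 1536-well plates got five library-drug doses (not always all listed) √10 apart by pinning and were left 5 days with no medium change. Viability divides treated-well nuclei by vehicle-well nuclei and is the median across plates. Nuclei were counted by MetaXpress from 4× Hoechst images.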

[1] = compound: OCc1c[nH]c2ccccc12 [Indole-3-carbinol] + CS(=O)(=O)CCNCc1ccc(-c2ccc3ncnc(Nc4ccc(OCc5cccc(F)c5)c(Cl)c4)c3c2)o1 [Lapatinib] (partner 2 µM)
Procedure, shortened: (§1)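 Each reported value is a median over duplicate plates. It expresses relative viability: treated-well nuclei count divided by vehicle-well nuclei count. Lung cancer cell lines in 1536-well plates were dosed by pin tool a day after seeding, alone with one drug or with a fixed anchor-drug dose plus five library-drug doses (not always all listed) in √10 steps, and nuclei were counted after 5 days.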

[2] = compound: OCc1c[nH]c2ccccc12 [Indole-3-carbinol] + O=C(CCCCCCC(=O)Nc1ccccc1)NO [Vorinostat] (partner 1 µM)
Procedure, shortened: as §1

[3] = compound: OCc1c[nH]c2ccccc12 [Indole-3-carbinol] + CC1(C)CCC(c2ccc(Cl)cc2)=C(CN2CCN(c3ccc(C(=O)NS(=O)(=O)c4ccc(N[C@H](CCN5CCOCC5)CSc5ccccc5)c(S(=O)(=O)C(F)(F)F)c4)cc3)CC2)C1 [Navitoclax] (partner 0.5 µM)
Procedure, shortened: as §1

[4] = compound: OCc1c[nH]c2ccccc12 [Indole-3-carbinol] + Cc1nc(Nc2ncc(C(=O)Nc3c(C)cccc3Cl)s2)cc(N2CCN(CCO)CC2)n1 [Dasatinib] (partner 0.075 µM)
Procedure, shortened: as §1

| Cell Line | relative viability (Indole-3-carbinol; 0.253 µM) | relative viability (Indole-3-carbinol; 0.8 µM) | relative viability (Indole-3-carbinol; 2.53 µM) | relative viability (Indole-3-carbinol; 8 µM) | relative viability ([1]; first compound 0.253 µM) | relative viability ([1]; first compound 0.8 µM) | relative viability ([1]; first compound 2.53 µM) | relative viability ([1]; first compound 8 µM) | relative viability ([2]; first compound 0.253 µM) | relative viability ([2]; first compound 0.8 µM) | relative viability ([2]; first compound 2.53 µM) | relative viability ([2]; first compound 8 µM) | relative viability ([3]; first compound 0.253 µM) | relative viability ([3]; first compound 0.8 µM) | relative viability ([3]; first compound 2.53 µM) | relative viability ([3]; first compound 8 µM) | relative viability ([4]; first compound 0.253 µM) | relative viability ([4]; first compound 0.8 µM) | relative viability ([4]; first compound 2.53 µM) | relative viability ([4]; first compound 8 µM) |
| --- | --- | --- | --- | --- | --- | --- | --- | --- | --- | --- | --- | --- | --- | --- | --- | --- | --- | --- | --- | --- |
| EMC-BAC-2 | 0.957 | 0.949 | 1.05 | 0.912 | 0.879 | 0.76 | 0.852 | 0.813 | 0.423 | 0.444 | 0.421 | 0.447 | 1.16 | 1.21 | 1.11 | 1.04 | 0.329 | 0.307 | 0.337 | 0.312 |
| NCI-H661 | 0.957 | 0.904 | 1.03 | 0.988 | 0.541 | 0.44 | 0.533 | 0.478 | 0.762 | 0.816 | 0.874 | 0.716 |  |  |  |  | 0.961 | 0.827 | 0.819 | 0.917 |
| LU99A | 0.946 | 0.915 | 1.01 | 0.905 | 0.893 | 0.968 | 0.973 | 0.89 | 0.504 | 0.514 | 0.59 | 0.455 | 0.802 | 0.847 | 0.832 | 0.73 | 0.504 | 0.587 | 0.515 | 0.485 |
| LK-2 | 0.929 | 0.872 | 1.02 | 1.05 | 0.883 | 0.864 | 1.13 | 1.04 | 0.193 | 0.295 | 0.333 | 0.448 | 0.777 | 0.769 | 1.1 | 0.821 | 0.262 | 0.297 | 0.299 | 0.273 |
| NCI-H3122 | 1.07 | 0.986 | 1.02 | 0.983 | 1.05 | 1.01 | 1.04 | 1.05 | 1.05 | 1.05 | 1.06 | 0.885 | 1.04 | 1.01 | 1.02 | 1.01 | 0.839 | 0.771 | 0.969 | 0.851 |
| NCI-H2347 | 1.08 | 1.07 | 1.09 | 0.961 | 0.937 | 1.03 | 1.08 | 0.672 | 0.521 | 0.638 | 0.526 | 0.506 | 0.765 | 0.782 | 0.814 | 0.699 | 0.303 | 0.26 | 0.313 | 0.344 |
| NCI-H1563 | 1.02 | 0.883 | 1.09 | 0.908 | 1.03 | 0.818 | 0.975 | 0.967 |  |  |  |  |  |  |  |  | 0.471 | 0.428 | 0.429 | 0.479 |
| HCC-827 | 1.07 | 1.03 | 1.06 | 0.987 | 0.202 | 0.18 | 0.227 | 0.191 | 0.767 | 0.903 | 0.896 | 0.839 | 1.04 | 1.09 | 1.05 | 0.947 | 0.338 | 0.315 | 0.316 | 0.357 |
| NCI-H1666 | 0.998 | 1.04 | 0.961 | 0.998 | 0.76 | 0.584 | 0.581 | 0.7 | 0.926 | 1.1 | 1.08 | 0.995 | 0.896 | 1.05 | 0.973 | 0.893 | 0.898 | 0.835 | 0.886 | 0.805 |
| NCI-H358 | 0.947 | 0.916 | 0.917 | 0.94 | 0.519 | 0.422 | 0.42 | 0.423 | 0.763 | 0.752 | 0.684 | 0.624 |  |  |  |  | 0.146 | 0.204 | 0.172 | 0.189 |
| 201T | 1.05 | 0.976 | 0.953 | 0.986 | 1.1 | 0.969 | 1.01 | 0.999 | 1.1 | 0.88 | 0.978 | 0.927 | 1.22 | 1.15 | 1.18 | 1.2 | 0.556 | 0.635 | 0.566 | 0.554 |
| PC-3 [JPC-3] | 1.05 | 1.04 | 1.05 | 0.953 | 0.462 | 0.441 | 0.399 | 0.439 | 0.827 | 0.926 | 0.801 | 0.875 | 0.8 | 0.804 | 0.823 | 0.783 | 0.979 | 1.02 | 0.986 | 0.949 |
| NCI-H2405 | 1.06 | 1.01 | 1.06 | 1.03 | 1.06 | 1.08 | 1.16 | 1.02 | 1 | 1.03 | 0.971 | 0.978 | 1.06 | 0.563 | 0.964 | 0.837 | 0.212 | 0.211 | 0.2 | 0.214 |
| LXF-289 | 1.09 | 1.1 | 1 | 0.946 | 0.919 | 0.946 | 0.881 | 0.841 | 0.836 | 0.795 | 0.733 | 0.76 | 0.966 | 0.96 | 0.904 | 0.927 | 0.256 | 0.229 | 0.258 | 0.203 |
| EKVX | 1.04 | 0.96 | 0.999 | 0.943 | 0.203 | 0.18 | 0.207 | 0.198 | 0.745 | 0.631 | 0.942 | 0.697 | 1.13 | 1.01 | 0.983 | 0.873 | 0.564 | 0.54 | 0.535 | 0.67 |
| A-427 | 0.96 | 0.95 | 0.982 | 0.97 | 1.03 | 1 | 0.989 | 0.976 | 0.836 | 0.818 | 0.86 | 0.825 | 0.963 | 1.05 | 0.97 | 0.947 | 0.676 | 0.768 | 0.742 | 0.564 |
